Source: patent US8530679B2, “Delta 9—tetrahydrocannabinol processing” (Resolution Chemicals Limited, priority 2007, dated 2013)

Experiments:
[1] = susceptible to rearrangement and oxidation; cited from earlier work
[2] = cited from earlier work; for psychomimetic activity: constituents of cannabis
[3] = stability of Δ9-THC on handling and storage; conditions: solution prepared below room temperature, typically below 0° C., in some instances −40° C. and even −78° C.

Structure (SMILES) | stability at room temperature [1] | psychomimetic activity relative to Δ8-THC ([2]; greater than Δ8-THC) | stability / degradation in solution of low boiling point solvent [3] | psychomimetic activity [2]
CCCCCc1cc(O)c2c(c1)OC(C)(C)[C@@H]1CCC(C)=C[C@@H]21 [Δ9-THC, Δ9-tetrahydrocannabinol] | relatively unstable | 20 times | no significant degradation | 
C=C(C)[C@@H]1CCC(C)=C[C@H]1c1c(O)cc(CCCCC)cc1O [Cannabidiol] |  |  |  | little activity
CCCCCc1cc2c(c(O)c1C(=O)O)[C@@H]1C=C(C)CC[C@H]1C(C)(C)O2 [THCA-A, Δ9-THC carboxylic acid] |  |  |  | psychomimetically inactive
